Paper PMC12308805, “Ultrahigh-Throughput Virtual Screening Strategies against PPI Targets: A Case Study of STAT Inhibitors” (Journal of Chemical Information and Modeling, 2025)
Where “and” joins values, the source holds several entries; their conditions need not be identical. Equal entries are not always repeated. Where two headings read alike, the source gives them in different places. Values belong to the molecule of their own block, whether it stands above or below them.

What was measured:
[1] = biological target: T1, STAT3 (127–770) SH2 domain (Homo sapiens, UniProt P40763); test: Fluorescence polarization assay (FP-assay), STAT3 SH2 domain; format: binding; design: key to identified as active in FP-assay: A compound was identified as active, if it had a mean IC50 value under 100 μM; settings: for IC50: FP-assay, mean IC50, at least three biological replicates
T1 construct: For STAT3 (127–770), the final concentration of the protein was 200 nM; made in house
T1 sequence (P40763 127-770): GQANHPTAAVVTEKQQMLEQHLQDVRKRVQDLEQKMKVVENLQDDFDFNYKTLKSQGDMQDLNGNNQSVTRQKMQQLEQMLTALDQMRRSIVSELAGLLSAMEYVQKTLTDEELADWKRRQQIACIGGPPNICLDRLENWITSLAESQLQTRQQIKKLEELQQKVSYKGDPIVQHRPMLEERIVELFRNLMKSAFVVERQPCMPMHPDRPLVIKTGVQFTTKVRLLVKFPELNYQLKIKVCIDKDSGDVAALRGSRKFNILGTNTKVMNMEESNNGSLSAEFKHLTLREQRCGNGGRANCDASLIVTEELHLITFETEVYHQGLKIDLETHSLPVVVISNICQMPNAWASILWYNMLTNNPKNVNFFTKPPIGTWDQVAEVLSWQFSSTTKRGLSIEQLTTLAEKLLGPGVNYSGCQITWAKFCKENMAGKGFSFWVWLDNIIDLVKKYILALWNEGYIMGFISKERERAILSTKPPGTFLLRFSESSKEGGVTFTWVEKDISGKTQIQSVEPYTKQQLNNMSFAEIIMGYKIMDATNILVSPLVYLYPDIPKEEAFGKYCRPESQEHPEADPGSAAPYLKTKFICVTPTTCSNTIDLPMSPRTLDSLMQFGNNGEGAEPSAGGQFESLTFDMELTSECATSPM
Experimental: (§1) The respective protocols for the expression and purification of the STAT3 SH2 and STAT5b SH2 domains were published in our recent works. Fluorescence polarization assays (FP-assays) were performed on a Molecular Devices SpectraMax iD5Multimode Microplate Reader (San Jose, CA, USA) using Greiner black 384-well flat-bottom nonbinding microplates with 40 μL final well volumes. The fluorescent peptides (5-FAM-G(pTyr)-LPQTV-NH2 and 5-FAM-G(pTyr)-LVLDKW-NH2, purchased from GenScript Biotech Ltd., Piscataway, NJ, USA), as well as the proteins, were diluted with a buffer containing 50 mM NaCl, 10 mM HEPES (4-(2-hydroxyethyl)-1-piperazineethanesulfonic acid), 1 mM EDTA (ethylenediaminetetraacetic acid), 2 mM DTT (dithiothreitol), and 0.1% Triton X-100, pH 7.5. For STAT3 (127–770), the final concentration of the protein was 200 nM, and the fluorescent peptide (5-FAM-G(pTyr)-LPQTV-NH2) was added at a final concentration of 5 nM; for STAT5b (136–703), the final concentration of the protein was 500 nM, and the fluorescent peptide (5-FAM-G(pTyr)-LVLDKW-NH2) was added at a final concentration of 10 nM. The wells were treated with varying concentrations of inhibitors (1250 to 0.11 μM final concentrations). The final DMSO content was 2.5%. After mixing, the protein and inhibitors were incubated at room temperature for 30 min, then the fluorescent peptide was added, and the plate was incubated for another 20 min prior to the fluorescence readout (extinction wavelength: 475 nm, emission wavelength: 520 nm). The measurements were carried out in at least three biological replicates. Fluorescence polarization was calculated from the perpendicular and parallel fluorescence intensities and then plotted against concentration. The IC50 values were determined after fitting quadratic dose–response curves on the data points in GraphPad Prism 8.0.1. […] All plotted curves and data points for the hit compounds are included in Section 2 of the Supporting Information.

[2] = biological target: T2, STAT5b (136–703) SH2 domain (Homo sapiens, UniProt P51692); test: Fluorescence polarization assay (FP-assay), STAT5b SH2 domain; format: binding; design: key to identified as active in FP-assay: A compound was identified as active, if it had a mean IC50 value under 100 μM; settings: for IC50: FP-assay, mean IC50, at least three biological replicates
T2 sequence (P51692 136-703): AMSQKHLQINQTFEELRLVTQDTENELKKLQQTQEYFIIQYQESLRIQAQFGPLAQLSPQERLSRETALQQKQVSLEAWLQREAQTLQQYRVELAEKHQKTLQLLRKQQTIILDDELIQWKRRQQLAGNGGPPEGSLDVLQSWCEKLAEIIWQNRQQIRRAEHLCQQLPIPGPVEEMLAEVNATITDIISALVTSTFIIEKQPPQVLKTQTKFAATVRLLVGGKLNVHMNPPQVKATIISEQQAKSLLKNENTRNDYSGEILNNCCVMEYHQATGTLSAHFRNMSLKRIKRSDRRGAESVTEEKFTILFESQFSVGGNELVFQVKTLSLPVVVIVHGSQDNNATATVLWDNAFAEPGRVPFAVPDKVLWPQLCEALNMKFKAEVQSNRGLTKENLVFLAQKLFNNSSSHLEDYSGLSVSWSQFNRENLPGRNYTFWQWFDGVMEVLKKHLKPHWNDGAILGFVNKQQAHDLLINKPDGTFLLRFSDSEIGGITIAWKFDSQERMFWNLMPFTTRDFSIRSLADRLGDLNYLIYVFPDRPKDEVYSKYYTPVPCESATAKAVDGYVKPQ
Experimental: as §1

STAT3 = settings: sheet 6QHD_actives_decoys, retrospective screening set for STAT3 SH2 domain (PDB 6QHD), ref DUD-E, cited from earlier work
[3] = decoys generated with DUD-E and presumed inactive, not tested

SMILES: Cn1c(CN2CCC(O)CC2)nnc1[C@H]1CCCN(Cc2ncc[nH]2)C1 [S5_M14, C1CC(O)CCN1Cc(n2C)nnc2[C@H]3CCCN(C3)Cc4[nH]cc[n]4]
IC50 [2]: 13.8 ± 14.9 µM

SMILES: O=C(O)CCCn1ccc2c(nnc3ccnn32)c1=O [S3_M13, n1ccc(nn2)n1c(c23)ccn(c3=O)CCCC([OH])=O]
identified as active in FP-assay [1]: active
IC50 [1]: 64.4 ± 17.7 µM

SMILES: COc1cnc(CSc2nc(C)cc(C)n2)cc1OCC(N)=O [S5_M2, Cc(n1)cc(C)nc1SCc2cc(c(cn2)OC)OCC(=O)N]
identified as active in FP-assay [2]: active
IC50 [2]: 62.4 ± 28.2 µM

SMILES: O=C(O)C[C@@H](O)c1nc2ccccc2[nH]1 [S5_M1, [OH]C(=O)C[C@@H](O)c([nH]1)nc(c12)cccc2]
identified as active in FP-assay [2]: active
IC50 [2]: 38.7 ± 13.7 µM

SMILES: C[C@@H](NC(=O)[C@@H]1CCCC[C@@H]1C(=O)O)c1ccncc1 [S3_M2, c1cnccc1[C@@H](C)NC(=O)[C@@H]2CCCC[C@@H]2C([OH])=O]
identified as active in FP-assay [1]: active
IC50 [1]: 80 ± 34.3 µM

SMILES: Cc1cc(=O)c(C(=O)O)c(O)[nH]1 [S3_M16, [OH]C(=O)c1c(=O)cc(C)[nH]c1O]
IC50 [1]: 111 ± 64.7 µM

SMILES: Cc1c(O)ccc2c(CC(=O)NCC(=O)NCC(=O)O)cc(=O)oc12 [S3_O10, Cc1c(O)ccc2c(CC(=O)NCC(=O)NCC(=O)[OH])cc(=O)oc12]
identified as active in FP-assay [1]: active
IC50 [1]: 99.9 ± 55.6 µM

SMILES: NCCN(Cc1csc(COc2ccccc2)n1)C[C@@H](O)CO [S3_E8, OC[C@H](O)CN(CC[NH2])Cc1csc(n1)COc2ccccc2]
identified as weakly binding in FP-assay [1]: weakly binding (A weakly binding compound (mean IC50 value higher than 100 μM))
IC50 [1]: 454 ± 181 µM

SMILES: Nc1ccc(C(=O)O)c(C(=O)O)c1 [S3_M15, Nc1cc(C([OH])=O)c(C([OH])=O)cc1]
identified as weakly binding in FP-assay [1]: weakly binding (A weakly binding compound (mean IC50 value higher than 100 μM))

SMILES: NC(=O)C1CCN(C(=O)c2ccccc2NC(=O)c2cccc(NC(=O)CCn3ccnc3)c2)CC1 [S3_E3, NC(=O)C1CCN(CC1)C(=O)c2ccccc2NC(=O)c3cccc(c3)NC(=O)CCn4cc[n]c4]
identified as weakly binding in FP-assay [1]: weakly binding (A weakly binding compound (mean IC50 value higher than 100 μM))
IC50 [1]: 472 ± 112 µM

SMILES: O=C(NCCc1cnccn1)[C@H]1CCCN(C2CCN(Cc3ccncc3)CC2)C1 [S5_M13, c1cnccc1CN(CC2)CCC2[N@@]3CCC[C@@H](C3)C(=O)NCCc4cnccn4]
identified as active in FP-assay [2]: active

SMILES: Cc1cccc(OC[C@@H](O)CN(C(=O)NC[C@H]2CC(C(N)=O)=NO2)C(C)C)c1 [S3_E7, Cc1cc(ccc1)OC[C@@H](O)CN(C(C)C)C(=O)NC[C@H]2CC(=NO2)C(=O)N]
identified as active in FP-assay [1]: active
IC50 [1]: 62.7 ± 25.1 µM

SMILES: CO[C@@H]1C[C@H](O[C@H]2CC[C@]3(/C=N/CC#N)[C@H]4CC[C@]5(C)[C@@H](C6=CC(=O)OC6)CC[C@]5(O)[C@@H]4CC[C@]3(O)C2)O[C@@H](C)[C@@H]1O [Decoy348]
Type (STAT3; […]): Inactive (Decoy)

SMILES: O=C(OC[C@@H]1O[C@H](Oc2ccc(O)cc2COC(=O)[C@@]2(O)[C@@H](O)CCC(=O)[C@@H]2O)[C@H](OC(=O)[C@H]2C=CCC2)[C@H](O)[C@@H]1O)[C@H]1C=CCC1 [Decoy886]
Type (STAT3; decoys are presumed inactives, not tested): Inactive (Decoy)

SMILES: CCOC(=O)c1cc(C(=O)OCC)c(=O)[nH]c1NN=C1CCN(c2ncc(C(F)(F)F)cc2Cl)CC1 [Decoy499]
Type (STAT3; [3]): Inactive (Decoy)

SMILES: COc1ccccc1CNC(=O)C[C@@H]1[C@H](O)CC[C@@H]2[C@](C)(CO)[C@H](OC(=O)Nc3cc(OC)c(OC)c(OC)c3)CC[C@]21C [Decoy724]
Type (STAT3; [3]): Inactive (Decoy)

SMILES: CCOC(=O)c1c(NC(=O)[C@@H](C)Sc2nnc(CNC(=O)c3cc(OC)cc(OC)c3)n2C)sc2c1CCC2 [Decoy533]
Type (STAT3; [3]): Inactive (Decoy)

Second part, led by results:

identified as active in FP-assay [1]: active
IC50 [1]: 26.7 ± 22.2 µM
SMILES: COc1ccccc1COC[C@@H](O)CN[C@H](C)c1cccc(S(N)(=O)=O)c1 [S3_E5, COc1ccccc1COC[C@@H](O)C[NH][C@H](C)c2cccc(c2)S(=O)(=O)N]

identified as active in FP-assay [1]: active
IC50 [1]: 13.6 ± 6.1 µM
SMILES: NC(=O)CSc1ccccc1C(=O)NC[C@H](O)COc1ccc2c(c1)OCO2 [S3_E4, NC(=O)CSc1ccccc1C(=O)NC[C@H](O)COc(cc2)cc(c23)OCO3]

identified as active in FP-assay [2]: active
IC50 [2]: 16.2 ± 8.2 µM
SMILES: O=C(O)[C@@H](O)[C@@H](O)c1nc2ccccc2[nH]1 [S5_M7, [OH]C(=O)[C@@H](O)[C@@H](O)c([nH]1)nc(c12)cccc2]

identified as active in FP-assay [2]: active
IC50 [2]: 41.2 ± 10.5 µM
SMILES: Nc1nc(NCCc2cn3ccsc3n2)cc([C@H]2C[C@H](O)C2)n1 [S5_M8, s1ccn(c12)cc(n2)CCNc3cc(nc(n3)N)[C@@H]4C[C@H](C4)O]

identified as active in FP-assay [1]: active
IC50 [1]: 21.7 ± 10.4 µM
SMILES: O=[N+]([O-])c1ccccc1S(=O)(=O)NC[C@H](O)COc1ccc2c(c1)OCO2 [S3_E6, O=[N+]([O-])c1ccccc1S(=O)(=O)NC[C@H](O)COc(cc2)cc(c23)OCO3]

IC50 [1]: > 100 µM and 104 µM
SMILES: Nc1ccc(-n2ccc(C(=O)O)n2)nc1 [S3_B12, Nc1ccc(nc1)n1ccc(n1)C(=O)O]
identified as weakly binding in FP-assay [1]: weakly binding (A weakly binding compound (mean IC50 value higher than 100 μM))

identified as active in FP-assay [2]: active
IC50 [2]: 42.6 ± 20.2 µM
SMILES: O=C(CCc1nc2ccccc2[nH]1)NCc1cc(-c2ccccc2)[nH]n1 [S5_M9, c1cccc(c12)[nH]c(n2)CCC(=O)NCc3n[nH]c(c3)-c4ccccc4]

identified as active in FP-assay [1]: active
IC50 [1]: 53.2 ± 46.9 µM
SMILES: O=C(O)c1[nH]c2ccccc2c1C(=O)O [S3_M5, [OH]C(=O)c([nH]1)c(C(=O)[OH])c(c12)cccc2]

IC50 [2]: 378 ± 108 µM
SMILES: Cc1c(CC(=O)N[C@H](CCCCNC(N)=O)C(=O)O)c(=O)oc2cc(O)ccc12 [S5_M6, c1cc(O)cc(c12)oc(=O)c(c2C)CC(=O)N[C@@H](C([OH])=O)CCCCNC(=O)N]
identified as weakly binding in FP-assay [2]: weakly binding (A weakly binding compound (mean IC50 value higher than 100 μM))
